Data reported in patent publication US12133900B2, “Synthesis and composition of amino acid linking groups conjugated to compounds used for the targeted imaging of tumors” (Purdue Research Foundation, priority 2013, dated 2024).
Entries after “also recorded” stand apart in the source; their conditions may differ.

How the values were obtained:
[1] = Chemical and optical properties of NIR dyes (Table 1); type: physicochemical
[2] = molecular target: T1, folate receptor (FR-α) on KB cells (Homo sapiens, UniProt P15328); test: Competition binding with [3H]-folic acid on KB cells; conditions: for affinity and specificity for folate receptor (words) / Kd: KB cells; for Relative binding affinities: relative affinity of folic acid=1, <1 weaker; for Kd: 10 nM [3H]-folic acid, 1 h at 37 °C, read-out: dissociation constants (KD)
T1 construct: KB cells that overexpress FR-α were seeded in 24-well (100,000 cells/well) Falcon plates; host or cells: KB cells (human; described as a HeLa derivative)
Experimental: KB cells that overexpress FR-α were seeded in 24-well (100,000 cells/well) Falcon plates and allowed to form monolayers over a period of 24 h. […] After incubating for 1 hour at 37° C., cells were rinsed with PBS (2×0.5 mL) and 1M trichloroacetic acid (1×0.5 mL) to remove any unbound radioactive materials. After adding 1% sodium dodecylsulfate in PBS (0.5 mL), cells were transferred into individual scintillation vials containing Ecolume scintillation cocktail (3.0 mL) and counted in a liquid scintillation analyzer. The relative binding affinities were calculated using a plot of cell bound radioactivity versus the concentration of the test article using Graph Pad Prism 4.
(§1) KB cells that overexpress FR-α were seeded in 24-well (100,000 cells/well) Falcon plates (BD Biosciences, CA) and allowed to form monolayers over a period of 12 h. […] After incubating for 1 h at 37° C., cells were rinsed with PBS (3×0.5 mL, Gibco, NY) to remove any unbound radioactive materials. After adding 0.25 M sodium hydroxide (0.5 mL) and incubating for 12 h at 4° C., cells were transferred into individual scintillation vials containing Ecolite scintillation cocktail (3.0 mL, MP Biomedicals, OH) and counted in a liquid scintillation analyzer (Packard). The relative binding affinities were calculated using a plot of % cell bound radioactivity versus the log concentration of the test article using GraphPad Prism 4.
as §1, with “12 hours.” for “12 h.”, “1 hour” for “1 h”, “12 hours” for “12 h”

[3] = Toxicity in healthy nude mice; type: in vivo
Experimental: Seven-week-old healthy female nude mice (5 mice/group) were administered with 1 μmol of freshly prepared OTL-0038 or OTL-0039 dissolved in 100 μL of phosphate buffered saline via tail vein injection on day zero. Body weights and clinical observations were monitored prior to dosing and daily thereafter from day zero to 7. Any animals with a body weight loss of 20% or more over two consecutive days would be euthanized, but this was not necessary. The animals were euthanized by CO2 asphyxiation on day 7 and selected tissues (brain, heart, lung, liver, spleen, kidney, stomach, small intestine, large intestine, muscle, skin) were collected into vials containing 4% formalin. Formalin fixed tissues were sectioned into 10 μm thick sections and mounted onto Superfrost Plus™ slides (Fisher Scientific, Pittsburgh Pa.). After staining the slides with H&E, immunohistochemistry (IHC) analysis of the tissues was conducted to determine to the toxicity of OTL-0038 and OTL-0039.

[4] = system: folate receptor positive KB tumor xenografts; test: Whole body imaging and tissue biodistribution, KB tumor xenografts; type: in vivo, mice; conditions: for tumor fluorescence intensity, direct comparison / whole body imaging: accumulation: 10 nmol i.v.; for tumor fluorescence intensity, direct comparison / whole body imaging: accumulation / tumor fluorescence: 2 h; for tumor fluorescence: 10 nmol
Experimental: (§2) Seven-week-old female nu/nu mice were inoculated subcutaneously with KB cells (1.0×10^6/mouse in folate free RPM11640 medium) on the shoulder. […] […] Whole body imaging (intact tumor) experiments were then performed using a Caliper IVIS Lumina II Imaging Station with Living Image 4.0 software (PerkinElmer Inc, MA). Settings for imaging:—lamp level: medium; excitation: 745 nm; emission: 830 nm; epi illumination; binning: 4 (M), FOV=12.5; f-stop=2; acquisition time=1 s.
(§3) Following whole body imaging, animals were dissected and selected tissues (heart, lung, liver, spleen, kidneys, stomach, small intestine, large intestine, muscle, skin, tumor) were analyzed for fluorescence activity using IVIS imager as before. Settings for imaging: lamp level: medium; excitation: 745 nm; emission: 830 nm; epi illumination; binning: 4 (M), FOV=12.5; f-stop=2; acquisition time=1 s.
as §2, with “shoulder. Growth of the tumors was measured in perpendicular directions every 2 days using a caliper (body weights were monitored on the same schedule), and the volumes of the tumors were calculated as 0.5×L×W^2 (L=longest axis and W=axis perpendicular to L in millimeters).” for “shoulder.”, “ICG (830 nm);” for “830 nm;”
as §3, with “skin, and” for “skin,”, “imaging:—lamp” for “imaging: lamp”, “emission:ICG (830 nm);” for “emission: 830 nm;”
Five-week-old female nu/nu mice were inoculated subcutaneously with KB cells (1.0×10^6/mouse in RPMI medium) on their shoulders. Growth of the tumors was measured in two perpendicular directions every 2 days using a caliper (body weights were monitored on the same schedule), and the volumes of the tumors were calculated as 0.5×L×W^2 (L) longest axis and W) axis perpendicular to L in millimeters). Once tumors reached between 400 and 500 mm3 in volume, animals were treated with folate receptor-targeted NIR dye conjugate (10 nmol) in phosphate buffered saline (100 μL). […]
Animal imaging experiments were performed using a Caliper Ivis Lumina II Imaging Station with Living Image 4.0 software. Settings for imaging Alexa Fluor 647 and DyLight 680 conjugates: lamp level: high; excitation: 605; emission: Cy5.5; epi illumination; binning: (M) 4; FOV=7.5; f-stop=4; acquisition time=1 s. Settings for imaging DyLight 750 and IR800CW conjugates: lamp level: high; excitation: 745; emission: ICG; epi illumination; binning: (M) 4, FOV=12.5; f-stop=4; acquisition time=1 s.
Seven-week-old female nu/nu mice were inoculated subcutaneously with KB cells (1.0×10^6/mouse in folate free RPM11640 medium) on the shoulder. Growth of the tumors was measured in perpendicular directions every 2 days using a caliper (body weights were monitored on the same schedule), and the volumes of the tumors were calculated as 0.5×L×W^2 (L=longest axis and W=axis perpendicular to L in millimeters). Once tumors reached between 400 and 500 mm3 in volume, animals (5 mice/group) were intravenously injected with 10 nmol of OTL-0038 or OTL-0039 in phosphate buffered saline (100 μL). After 2.5 hours, animals were euthanized by CO2 asphyxiation. Whole body imaging (intact tumor) experiments were then performed using a Caliper IVIS Lumina II Imaging Station with Living Image 4.0 software (PerkinElmer Inc, MA). […]

T1 sequence (P15328 25-234): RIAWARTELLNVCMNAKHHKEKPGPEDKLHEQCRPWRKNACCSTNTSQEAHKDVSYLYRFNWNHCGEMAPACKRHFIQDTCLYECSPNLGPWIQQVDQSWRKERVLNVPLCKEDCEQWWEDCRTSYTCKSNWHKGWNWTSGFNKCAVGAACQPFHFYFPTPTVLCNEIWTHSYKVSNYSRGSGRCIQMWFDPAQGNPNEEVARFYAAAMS

Compound	Relative binding affinities [2]	Kd [2]	whole body imaging: accumulation [4]	also measured
CC1(C)C(/C=C/C=C/C=C/C=C2\N(CCCCS(=O)(=O)O)c3ccc4ccccc4c3C2(C)C)=[N+](CCCCS(=O)(=O)[O-])c2ccc3ccccc3c21 [ICG, indocyanine green]				E [1]: 121000 M⁻¹ cm⁻¹; Q (%) [1]: 9.3%; Stokes Shift (nm) [1]: 15 nm; λem (nm) [1]: 807 nm; λex (nm) [1]: 822 nm
CC1(C)C(/C=C/C2=C(Oc3ccc(S(=O)(=O)O)cc3)C(=C/C=C3/N(CCCCS(=O)(=O)O)c4ccc(S(=O)(=O)[O-])cc4C3(C)C)/CCC2)=[N+](CCCCCC(=O)O)c2ccc(S(=O)(=O)O)cc21 [IR800CW]				E [1]: 237000 M⁻¹ cm⁻¹; Q (%) [1]: 14.2%; Stokes Shift (nm) [1]: 14 nm; λem (nm) [1]: 786 nm; λex (nm) [1]: 800 nm
CC1(C)C(=CC=C2CCCC(C=CC3=[N+](CCCCS(=O)(=O)[O-])c4ccc(S(=O)(=O)O)cc4C3(C)C)=C2Oc2ccc(C[C@@H](NC(=O)c3ccc(NCc4cnc5nc(N)[nH]c(=O)c5n4)cc3)C(=O)O)cc2)N(CCCCS(=O)(=O)O)c2ccc(S(=O)(=O)O)cc21 [OTL-0039, PTE-D-Tyr-S0456]	0.09			affinity and specificity for folate receptor (words) [2]: lower affinity for folate receptor when compared to folic acid and OTL-0038; toxicity (conclusion) ([3]; 1 μmol (1000× clinical dose)): not toxic to animals; skin colour immediately after the injection ([3]; 1 μmol tail vein): became green; activity and behaviour ([3]; 1 μmol tail vein, day 0 to 7): behaved normally throughout the study; body weights over the course of the study ([3]; 1 μmol tail vein, day 0 to 7): remained stable; lesions in tissues (IHC data) ([3]; 1 μmol tail vein, day 7): no lesions identified in any tissues
CC1(C)C(=CC=C2CCCC(C=CC3=[N+](CCC[N+](C)(C)C)c4ccc(S(=O)(=O)O)cc4C3(C)C)=C2Oc2ccc(CCC(=O)O)cc2)N(CCC[N+](C)(C)C)c2ccc(S(=O)(=O)O)cc21 [ZW80o]				E [1]: 249000 M⁻¹ cm⁻¹; Q (%) [1]: 15.1%; Stokes Shift (nm) [1]: 16 nm; λem (nm) [1]: 772 nm; λex (nm) [1]: 788 nm
FA-EDA-LS288 [OTL-0001]	0.270	30.7 nM	accumulated predominantly in the folate receptor positive tumors	
Pte-N(Me)-Tyr-S0456 [OTL-0044]			accumulated predominantly in the folate receptor-positive tumors; also recorded: mainly accumulated in the tumors	affinity and specificity for folate receptor (words) [2]: All the compounds have an affinity for folate receptor except OTL-0044 and OTL-0045
Pte-NHNH-Tyr-(OAc)-S0456 [OTL-0045]				affinity and specificity for folate receptor (words) [2]: All the compounds have an affinity for folate receptor except OTL-0044 and OTL-0045
Pte-Tyr-13C-S0456 [OTL-0040]	0.290	27.6 nM		
Pte-Tyramine-S0456 [OTL-0049]	0.265	30.2 nM		
Pte-p-homo-Tyr-S0456 [OTL-0047]	0.625	12.8 nM	accumulated predominantly in the folate receptor-positive tumors; also recorded: mainly accumulated in the tumors	
Pteroyl DAP-S0456 [OTL-0056]	0.078	95.2 nM		
Pteroyl-Cys-S0456 [OTL-0054]			accumulated predominantly in the folate receptor-positive tumors	
Pteroyl-Lys-S0456 [OTL-0053]				tumor fluorescence ([4]; excited at 605-675 nm, emitted at ICG (830 nm)): bright tumor fluorescence; tumor fluorescence ([4]; excited at 710-745 nm, emitted at ICG): only a moderate brightness; Stoke's shift ([4]; in vivo imaging): longer Stoke's shift

Second part, led by results:

Relative binding affinities [2]	Kd [2]	Compound	whole body imaging: accumulation [4]	also measured
0.430	19.3 nM	FA-EDA-IR800 [OTL-0002]	accumulated predominantly in the folate receptor positive tumors	tumor fluorescence intensity, direct comparison [4]: brighter (higher fluorescence intensity); also recorded: highest tumor-accumulated fluorescence
0.271	30.6 nM	FA-EDA-Kodak2 [OTL-0004]	did not accumulated in the tumors	tumor fluorescence intensity, direct comparison [4]: very low specificity for the tumor and low fluorescence
0.356	23.3 nM	FA-EDA-ZW800 [OTL-0003]	accumulated predominantly in the folate receptor positive tumors	tumor fluorescence intensity, direct comparison [4]: highest tumor-accumulated fluorescence
0.130	61.7 nM	Pte-Tyr-2H(Deuterated)-S0456 [OTL-0042]		
0.177	14.8 nM	Pte-Tyr-(OBn)-S0456 [OTL-0043]		
0.580	13.8 nM	Pte-homo-Tyr-S0456 [OTL-0046]	accumulated predominantly in the folate receptor-positive tumors; also recorded: mainly accumulated in the tumors	
